Experimental data: patent publication US6737383B1, “Herbicidal oxadiazolidines” (priority 1999, dated 2004)

What was measured:
bedstraw = test: Test B pre/postemergence bedstraw; type: in vivo, Galium aparine
Method in brief: (§1)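 Herbicidal effect was estimated by eye on a ten-point control scale after plants spent twelve to sixteen days in a greenhouse following soil or foliar treatment. Foliar sprays targeted plants at one to four leaves; all doses were formulated in a non-phytotoxic solvent with surfactant.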

blackgrass = test: Test B pre/postemergence blackgrass; type: in vivo, Alopecurus myosuroides
Method in brief: as §1

surinam grass = test: Test B pre/postemergence surinam grass; type: in vivo, Brachiaria decumbens
Method in brief: as §1

corn = test: Test B pre/postemergence corn; type: in vivo, Zea mays
Method in brief: as §1

giant foxtail = test: Test B pre/postemergence giant foxtail; type: in vivo, Setaria faberii
Method in brief: as §1

morningglory = test: Test B pre/postemergence morningglory; type: in vivo, Ipomoea hederacea
Method in brief: as §1

pigweed = test: Test B pre/postemergence pigweed; type: in vivo, Amaranthus retroflexus
Method in brief: as §1

rape = test: Test B pre/postemergence rape; type: in vivo, Brassica napus
Method in brief: as §1

soybean = test: Test B pre/postemergence soybean; type: in vivo, Glycine max
Method in brief: as §1

sugar beet = test: Test B pre/postemergence sugar beet; type: in vivo, Beta vulgaris; details: for Plant response rating, Sugarbeets: Rate 250 g/ha
Method in brief: as §1

velvetleaf = test: Test B pre/postemergence velvetleaf; type: in vivo, Abutilon theophrasti; details: for Plant response rating, Velvetleaf: Rate 250 g/ha
Method in brief: as §1

purple nutsedge = test: Test B pre/postemergence purple nutsedge; type: in vivo, Cyperus rotundus
Method in brief: as §1

rice = test: Test B flood test rice; type: in vivo, Oryza sativa
Method in brief: (§2)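 Flood test on plants grown to the 2-leaf stage; treated plants kept in greenhouse twelve to sixteen days, then visually rated against controls on a 0 (no effect) to 10 (complete control) scale.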

smallflower flatsedge = test: Test B flood test smallflower flatsedge; type: in vivo, Cyperus difformis
Method in brief: as §2

duck salad = test: Test B flood test duck salad; type: in vivo, Heteranthera limosa
Method in brief: as §2

bamyardgrass = test: Test B flood test barnyardgrass; type: in vivo, Echinochloa crus-galli
Method in brief: as §2

[1] = Postemergence, Rate 62 g/ha, scale 0 to 10, 0 is no effect, 10 is complete control
[2] = Postemergence, Rate 250 g/ha, scale 0 to 10, 0 no effect, 10 complete control
[3] = Preemergence, Rate 62 g/ha, scale 0 to 10 (0 no effect, 10 complete control)
[4] = Preemergence, Rate 125 g/ha, scale 0 to 10 (0 no effect, 10 complete control)
[5] = Preemergence, Rate 250 g/ha, scale of 0 to 10 where 0 is no effect and 10 is complete control
[6] = Preemergence, Rate 500 g/ha, scale 0 to 10 (0 no effect, 10 complete control)
[7] = Postemergence, Rate 125 g/ha, scale of 0 to 10 where 0 is no effect and 10 is complete control
[8] = Rate 62 g/ha, Postemergence, scale of 0 to 10 where 0 is no effect and 10 is complete control
[9] = Rate 500 g/ha, Postemergence, scale 0 to 10, 0 no effect, 10 complete control
[10] = Rate 250 g/ha, Postemergence, scale 0 to 10, 0 is no effect, 10 is complete control
[11] = Preemergence, Rate 125 g/ha, 0 is no effect, 10 is complete control
[12] = Preemergence, scale of 0 to 10 where 0 is no effect and 10 is complete control
[13] = Postemergence, scale 0 to 10, 0 is no effect, 10 is complete control
[14] = Postemergence (flood test species), Rate 125 g/ha, scale of 0 to 10 where 0 is no effect and 10 is complete control
[15] = Rate 62 g/ha, Postemergence section, flood test species, scale of 0 to 10 where 0 is no effect and 10 is complete control
[16] = Rate 250 g/ha, Postemergence (flood test), scale 0 to 10, 0 is no effect, 10 is complete control
[17] = Rate 500 g/ha, listed under Postemergence (flood test species), scale 0 to 10, 0 no effect, 10 complete control
[18] = flood test, listed under Postemergence, Rate 250 g/ha, scale 0 to 10, 0 no effect, 10 complete control

CC(C)N(C(=O)n1oc(=O)n(C2CCCCC2)c1=O)c1ccc(F)cc1 [Compound 110]
4: Plant response rating, Bedstraw (bedstraw; [4]) | Blackgrass plant response rating (blackgrass; [7]) | Blackgrass plant response rating (blackgrass; [2]) | Plant response rating, Corn (corn; [5]) | Corn plant response rating (corn; [6]) | Corn plant response rating (corn; [9]) | Morningglory plant response rating (morningglory; [8]) | Redroot pigweed plant response rating (pigweed; [7]) | Rape plant response rating (rape; [7]) | Rape plant response rating (rape; [2]) | Plant response rating, Rape (rape; [5])
2: Bedstraw plant response rating (bedstraw; [1]) | Corn plant response rating (corn; [3]) | Giant foxtail plant response rating (giant foxtail; [7]) | Rape plant response rating (rape; [8]) | Plant response rating, Sugarbeets (sugar beet; [12]) | Velvetleaf plant response rating (velvetleaf; [9])
7: Bedstraw plant response rating (bedstraw; [6]) | Plant response rating, Blackgrass (blackgrass; [5]) | Blackgrass plant response rating (blackgrass; [6]) | Plant response rating, B. signalgrass (surinam grass; [4]) | B. signalgrass plant response rating (surinam grass; [6]) | Plant response rating, Redroot pigweed (pigweed; [5]) | Soybean plant response rating (soybean; [9]) | Velvetleaf plant response rating (velvetleaf; [6])
8: Bedstraw plant response rating (bedstraw; [2]) | Blackgrass plant response rating (blackgrass; [9]) | Giant foxtail plant response rating (giant foxtail; [9]) | Redroot pigweed plant response rating (pigweed; [6]) | Rape plant response rating (rape; [6])
3: Plant response rating, Blackgrass (blackgrass; [4]) | B. signalgrass plant response rating (surinam grass; [3]) | B. signalgrass plant response rating (surinam grass; Rate 500 g/ha, Postemergence, scale of 0 to 10 where 0 is no effect and 10 is complete control) | Plant response rating, Corn (corn; [4]) | Redroot pigweed plant response rating (pigweed; [3]) | Redroot pigweed plant response rating (pigweed; [8]) | Soybean plant response rating (soybean; [7]) | Soybean plant response rating (soybean; [8]) | Sugarbeets plant response rating (sugar beet; [7]) | Plant response rating, Sugarbeets (sugar beet; [13]) | Sugarbeets plant response rating (sugar beet; [9])
1: Blackgrass plant response rating (blackgrass; [8]) | Plant response rating, Rape (rape; [4]) | Soybean plant response rating (soybean; [3]) | Sugarbeets plant response rating (0 to 10 scale) (sugar beet; [11]) | Plant response rating, Velvetleaf (velvetleaf; [13])
0: Bedstraw plant response rating (bedstraw; [3]) | Blackgrass plant response rating (blackgrass; [3]) | B. signalgrass plant response rating (surinam grass; [1]) | B. signalgrass plant response rating (surinam grass; [2]) | B. signalgrass plant response rating (surinam grass; Rate 125 g/ha, Postemergence, scale 0 to 10, 0 no effect, 10 complete control) | Corn plant response rating (corn; [7]) | Corn plant response rating (corn; [2]) | Corn plant response rating (corn; [8]) | Giant foxtail plant response rating (giant foxtail; [8]) | Morningglory plant response rating (morningglory; [3]) | Plant response rating, Morningglory (morningglory; [4]) | Plant response rating, Morningglory (morningglory; [5]) | Morningglory plant response rating (morningglory; [6]) | Rape plant response rating (rape; [3]) | Sugarbeets plant response rating (sugar beet; [3]) | Sugarbeets plant response rating (sugar beet; [8]) | Velvetleaf plant response rating (velvetleaf; [7]) | Velvetleaf plant response rating (velvetleaf; [3]) | Velvetleaf plant response rating (velvetleaf; [8]) | Nutsedge plant response rating (purple nutsedge; [7]) | Nutsedge plant response rating (purple nutsedge; [2]) | Nutsedge plant response rating (purple nutsedge; [3]) | Plant response rating, Nutsedge (purple nutsedge; [4]) | Plant response rating, Nutsedge (purple nutsedge; [5]) | Nutsedge plant response rating (purple nutsedge; [6]) | Nutsedge plant response rating (purple nutsedge; [8]) | Nutsedge plant response rating (purple nutsedge; [9]) | Rice plant response rating (rice; [14]) | Rice plant response rating (rice; [15]) | Plant response rating, Rice (rice; [16]) | Rice plant response rating (rice; [17]) | S. Flatsedge plant response rating (smallflower flatsedge; [14]) | S. Flatsedge plant response rating (smallflower flatsedge; [15]) | Plant response rating, S. Flatsedge (smallflower flatsedge; [16]) | S. Flatsedge plant response rating (smallflower flatsedge; [17]) | Ducksalad plant response rating (duck salad; [14]) | Ducksalad plant response rating (duck salad; [15]) | Ducksalad plant response rating (duck salad; [17]) | Ducksalad plant response rating (duck salad; [18]) | Barnyardgrass plant response rating (bamyardgrass; [1]) | Barnyardgrass plant response rating (bamyardgrass; Rate 125 g/ha, Postemergence section (flood test species), scale 0 to 10, 0 no effect, 10 complete control) | Barnyardgrass plant response rating (bamyardgrass; [17]) | Barnyardgrass plant response rating (bamyardgrass; [18])
5: Plant response rating, Bedstraw (bedstraw; [5]) | Giant foxtail plant response rating (giant foxtail; [2]) | Morningglory plant response rating (morningglory; [7]) | Morningglory plant response rating (morningglory; [2]) | Morningglory plant response rating (morningglory; [9]) | Plant response rating, Redroot pigweed (pigweed; [10]) | Plant response rating, Soybean (soybean; [4]) | Plant response rating, Soybean (soybean; [5]) | Plant response rating, Soybean (soybean; [10]) | Sugarbeets plant response rating (sugar beet; [6]) | Velvetleaf plant response rating (0 to 10 scale) (velvetleaf; [11]) | Plant response rating, Velvetleaf (velvetleaf; [12])
10: Giant foxtail plant response rating (giant foxtail; [3]) | Plant response rating, Giant foxtail (giant foxtail; [4]) | Plant response rating, Giant foxtail (giant foxtail; [5]) | Giant foxtail plant response rating (giant foxtail; [6])
6: Plant response rating, Redroot pigweed (pigweed; [4]) | Redroot pigweed plant response rating (pigweed; [9]) | Rape plant response rating (rape; [9]) | Soybean plant response rating (soybean; [6])
